# Data: patent US7968323B2, “Bacterial ghost (BG) production process using betapropiolactone (BPL) for final inactivation” (priority 2008, dated 2011)
# Columns and labels:
# [1] = test system: E. coli NM522 (pBBR1MCS5); assay: BPL treatment of E. coli NM522 (pBBR1MCS5, no E-lysis), small scale, CFU; assay type: cell-based; conditions: 0.05% BPL, 42° C., 30 min
# Method: (§1) 2. Comparison of E. coli NM522 (pBBR1MCS5, no E-lysis) and E. coli BG NM522 (pGlysivb, E-lysis Plasmid) Treated vs. Nontreated with BPL at a Final Concentration of 0.05% BPL at 42° C.
# (§2) Data from E. coli NM522 (pBBR1MCS5) that have been treated with 0.05% BPL at 42° C. (FIG. 4A) are showing that a reduction in viability of ˜5 log is obtained in small scale experiments whereas E. coli BG NM522 (pGlysivb) treated with 0.05% BPL at 42° C. […] Using a concentration of 0.05% BPL under a temperature of 42° C. and 30 min for the reaction is sufficient for E-lysed bacteria to be safely inactivated; no living cell counts are detected.
# [2] = test system: E. coli BG NM522 (pGlysivb); assay: BPL treatment of E. coli BG NM522 (pGlysivb, E-lysis plasmid), small scale, CFU; assay type: cell-based; conditions: 0.05% BPL, 42° C., 30 min
# Method: as §1, §2
# E. coli NM522 pGlysivb = assay: Temperature study of BPL inactivation rates; assay type: cell-based; conditions: 0.05% BPL; for reduction of CFU: within 30 min; for time to BPL inactivation: starting CFU approximately 110^3/ml
# Excerpt: The sterilizing activity of BPL and its self destruction in water is temperature dependant.
# [3] = test system: E. coli NM522 (backbone plasmid pBBR1MCS5); assay: BPL treatment in 20 l fermenter, control without lysis, CFU; assay type: cell-based; conditions: 0.05% BPL, 42° C., 30 min
# Excerpt: (§3) During the production process samples of the culture broth are taken at fixed timepoints (labeled A-M in FIG. 3) to determine optical density, colony forming units (CFU), BG appearance by microscopy as well as for real time PCR analysis of DNA contents. Fermentation parameters like pH, air flow, pO2, stirring and temperature are automatically documented by the fermentation program. Throughout the consistency study all parameters were kept in a narrow window.
# (§4) BPL killing rates as well as DNA concentration of bacterial samples were measured at time points and under fermentation conditions as described for BG production (Example 1, FIG. 3).
# [4] = test system: E. coli NM522 BG (pGlysivb); assay: BPL treatment in 20 l fermenter, E-lysed BG, CFU; assay type: cell-based; conditions: 0.05% BPL, 42° C., 30 min
# Method: (§5) Gram negative bacteria (e.g E. coli or Shigella flexneri 2a in this study) are transformed with plasmid pGlysivb (encoding lysis gene E, construction as described in FIG. 2) or pGLNIc (encoding both the lysis gene E and the Staphylococcus aureus nuclease gene SNUC; WO 03/006630). Plasmids, pGlysivb and pGLNIc tightly regulate expression of lysis gene E by a temperature upshift from 35° C. to 42-44° C. under the mutated thermosensitive Lambda-promotor (λPRmut) and the expression of SNUC depends on induction from an upstream lac-promotor by addition of IPTG. As a consequence of protein E expression an E-specific tunnel structure between the inner and outer membrane of the bacteria is formed resulting in the expulsion of the cytoplasmic contents, including chromosomal and plasmid DNA, into the culture media under conditions described, at least 99.9% of all bacteria are converted into BG during the E-lysis process. To guarantee nucleic acid free BG a second system is activated in case of pGLNIc making use of the DNA and RNA degrading capabilities of SNUC. […]
# as §4
# [5] = test system: E. coli NM522 (pGlysivb, pSNUCIQ3); assay: BPL inactivation of E-SNUC BG in 20 l fermenter; assay type: cell-based; conditions: 42° C., 30 min
# Method: as §5, with “SNUC. The nuclease is expressed −30 min before induction of gene E expression during the exponential growth phase of the bacteria and is activated after completion of E-lysis by addition of magnesiumchloride and calciumchloride.” for “SNUC.”
# [6] = test system: Shigella flexneri 2a (backbone plasmid pBBR1MCS5); assay: Control fermentations inactivated with BPL, CFU; assay type: cell-based; conditions: 0.05% BPL, 30 min, two control fermentations
# Excerpt: as §3
# To determine the inactivation effect of BPL to Shigella flexneri 2a bacteria under the same fermentation conditions as for production of BG two control fermentations using Shigella flexneri 2a transformed with the backbone plasmid pBBR1MCS5 (no lysis, no nuclease) were performed. BPL killing rates as well as DNA concentration of bacterial samples was measured at time points and under fermentation conditions described for BG production (Example 1, FIG. 3).
# [7] = cited from earlier work
smiles,measurement,setting,value
"O=C1CCO1 [BPL, betapropiolactone]",reduction in viability,[1],~5 log
same,surviving bacteria after BPL treatment,[2],no surviving bacteria
same,reduction of CFU,E. coli NM522 pGlysivb; 16° C.,less than 0.5 log
same,reduction of CFU,E. coli NM522 pGlysivb; 28° C.,approximately 1.5 log
same,time to BPL inactivation,E. coli NM522 pGlysivb; 36° C.,30 min
same,time to BPL inactivation,E. coli NM522 pGlysivb; 42° C.,15 min
same,reduction in viability,[3],~3 log
same,"inactivation, live CFU at end of BG production process",[4],total inactivation
same,concentration used for total inactivation by BPL,[5],less than 0.025%
same,drop in living cell counts (CFU),[6],4 log
same,solubility in water,[7],highly soluble in water
